In brackets after ≈: the same amount, converted by molar mass.
Experiments:
Type in all cases: functional
Proteus vulgaris = experiment: Antibacterial activity against Proteus vulgaris obtained from complicated skin and skin structure infections by agar dilution method
[1] = tested on: Streptococcus constellatus; experiment: Antibacterial activity against Streptococcus constellatus obtained from complicated skin and skin structure infections by agar dilution method
Citrobacter braakii = experiment: Antibacterial activity against Citrobacter braakii obtained from complicated skin and skin structure infections by agar dilution method
Pseudomonas fluorescens = experiment: Antibacterial activity against Pseudomonas fluorescens obtained from complicated skin and skin structure infections by agar dilution method
[2] = tested on: Stenotrophomonas maltophilia; experiment: Antibacterial activity against Stenotrophomonas maltophilia obtained from complicated skin and skin structure infections by agar dilution method
[3] = tested on: Staphylococcus intermedius; experiment: Antibacterial activity against Staphylococcus intermedius obtained from complicated skin and skin structure infections by agar dilution method
Morganella morganii = experiment: Antibacterial activity against Morganella morganii obtained from complicated skin and skin structure infections by agar dilution method
Proteus mirabilis = experiment: Antibacterial activity against Proteus mirabilis obtained from complicated skin and skin structure infections by agar dilution method
Lactococcus lactis = experiment: Antibacterial activity against Lactococcus lactis obtained from complicated skin and skin structure infections by agar dilution method
Klebsiella oxytoca = experiment: Antibacterial activity against Klebsiella oxytoca obtained from complicated skin and skin structure infections by agar dilution method
[4] = Antibacterial activity against Streptococcus sp. 'group G' obtained from complicated skin and skin structure infections by agar dilution method
Serratia marcescens = experiment: Antibacterial activity against Serratia marcescens obtained from complicated skin and skin structure infections by agar dilution method
Enterobacter amnigenus = experiment: Antibacterial activity against Enterobacter amnigenus obtained from complicated skin and skin structure infections by agar dilution method; conditions: Lelliottia amnigena
Providencia stuartii = experiment: Antibacterial activity against Providencia stuartii obtained from complicated skin and skin structure infections by agar dilution method
[5] = Antibacterial activity against Streptococcus sp. 'group C' obtained from complicated skin and skin structure infections by agar dilution method
Citrobacter freundii = experiment: Antibacterial activity against Citrobacter freundii obtained from complicated skin and skin structure infections by agar dilution method
Enterococcus faecalis = experiment: Antibacterial activity against Enterococcus faecalis obtained from complicated skin and skin structure infections by agar dilution method
Aerococcus viridans = experiment: Antibacterial activity against Aerococcus viridans obtained from complicated skin and skin structure infections by agar dilution method
Proteus penneri = experiment: Antibacterial activity against Proteus penneri obtained from complicated skin and skin structure infections by agar dilution method
Klebsiella pneumoniae = experiment: Antibacterial activity against Klebsiella pneumoniae obtained from complicated skin and skin structure infections by agar dilution method
Streptococcus mitis = experiment: Antibacterial activity against Streptococcus mitis obtained from complicated skin and skin structure infections by agar dilution method
Acinetobacter baumannii = experiment: Antibacterial activity against Acinetobacter baumannii obtained from complicated skin and skin structure infections by agar dilution method
Enterobacter cloacae = experiment: Antibacterial activity against Enterobacter cloacae obtained from complicated skin and skin structure infections by agar dilution method
Pseudomonas aeruginosa = experiment: Antibacterial activity against Pseudomonas aeruginosa obtained from complicated skin and skin structure infections by agar dilution method
Streptococcus pyogenes = experiment: Antibacterial activity against Streptococcus pyogenes obtained from complicated skin and skin structure infections by agar dilution method
Bacillus = experiment: Antibacterial activity against Bacillus spp. obtained from complicated skin and skin structure infections by agar dilution method
Escherichia coli = experiment: Antibacterial activity against Escherichia coli obtained from complicated skin and skin structure infections by agar dilution method
Gemella = experiment: Antibacterial activity against Gemella spp. obtained from complicated skin and skin structure infections by agar dilution method
Micrococcus = experiment: Antibacterial activity against Micrococcus spp. obtained from complicated skin and skin structure infections by agar dilution method
Salmonella = experiment: Antibacterial activity against Salmonella spp. obtained from complicated skin and skin structure infections by agar dilution method
Klebsiella aerogenes = experiment: Antibacterial activity against Enterobacter aerogenes obtained from complicated skin and skin structure infections by agar dilution method
Streptococcus agalactiae = experiment: Antibacterial activity against Streptococcus agalactiae obtained from complicated skin and skin structure infections by agar dilution method
Gemella morbillorum = experiment: Antibacterial activity against Gemella morbillorum obtained from complicated skin and skin structure infections […]

`CC(C)(O/N=C(\C(=O)N[C@@H]1C(=O)N2C(C(=O)[O-])=C(C[n+]3ccccc3)CS[C@H]12)c1csc(N)n1)C(=O)O` [CEFTAZIDIME] gave an MIC50 (Proteus vulgaris) of 0.12 µg/mL (≈ 0.22 µM), an MIC90 (Proteus vulgaris) of 16 µg/mL (≈ 29.3 µM) and an MIC50 [1] of 2 µg/mL (≈ 3.66 µM). For the same molecule, the MIC90 [1] was 4 µg/mL (≈ 7.32 µM), the MIC50 (Citrobacter braakii) was 0.12 µg/mL (≈ 0.22 µM) and the MIC90 (Citrobacter braakii) was 16 µg/mL (≈ 29.3 µM). For the same molecule, the MIC50 (Pseudomonas fluorescens) was greater than 16 µg/mL, the MIC90 (Pseudomonas fluorescens) was greater than 128 µg/mL and the MIC50 [2] was greater than 16 µg/mL. It also gave an MIC90 [2] greater than 128 µg/mL, an MIC50 [3] of 0.12 µg/mL (≈ 0.22 µM) and an MIC90 [3] of 0.25 µg/mL (≈ 0.457 µM). It also gave an MIC50 (Morganella morganii) of no more than 0.12 µg/mL, an MIC90 (Morganella morganii) of 8 µg/mL (≈ 14.6 µM) and an MIC50 (Proteus mirabilis) of 0.06 µg/mL (≈ 0.11 µM). For the same molecule, the MIC90 (Proteus mirabilis) was 2 µg/mL (≈ 3.66 µM), the MIC50 (Lactococcus lactis) was 1 µg/mL (≈ 1.83 µM) and the MIC90 (Lactococcus lactis) was 64 µg/mL (≈ 117 µM). For the same molecule, the MIC50 (Klebsiella oxytoca) was 0.12 µg/mL (≈ 0.22 µM), the MIC90 (Klebsiella oxytoca) was 16 µg/mL (≈ 29.3 µM) and the MIC50 [4] was 0.25 µg/mL (≈ 0.457 µM). The MIC90 [4] was 0.25 µg/mL (≈ 0.457 µM), the MIC50 (Serratia marcescens) was 0.12 µg/mL (≈ 0.22 µM) and the MIC90 (Serratia marcescens) was 16 µg/mL (≈ 29.3 µM). The MIC50 (Enterobacter amnigenus) was 0.12 µg/mL (≈ 0.22 µM), the MIC90 (Enterobacter amnigenus) was 16 µg/mL (≈ 29.3 µM) and the MIC50 (Providencia stuartii) was 0.12 µg/mL (≈ 0.22 µM). It also gave an MIC90 (Providencia stuartii) of 16 µg/mL (≈ 29.3 µM), an MIC50 [5] of 0.5 µg/mL (≈ 0.915 µM) and an MIC90 [5] of 4 µg/mL (≈ 7.32 µM). For the same molecule, the MIC50 (Citrobacter freundii) was 0.12 µg/mL (≈ 0.22 µM), the MIC90 (Citrobacter freundii) was 16 µg/mL (≈ 29.3 µM) and the MIC50 (Enterococcus faecalis) was greater than 128 µg/mL. The MIC90 (Enterococcus faecalis) was greater than 128 µg/mL, the MIC50 (Aerococcus viridans) was 1 µg/mL (≈ 1.83 µM) and the MIC90 (Aerococcus viridans) was 64 µg/mL (≈ 117 µM). The MIC50 (Proteus penneri) was 0.12 µg/mL (≈ 0.22 µM), the MIC90 (Proteus penneri) was 16 µg/mL (≈ 29.3 µM) and the MIC50 (Klebsiella pneumoniae) was 0.12 µg/mL (≈ 0.22 µM). The MIC90 (Klebsiella pneumoniae) was 64 µg/mL (≈ 117 µM), the MIC50 (Streptococcus mitis) was 0.12 µg/mL (≈ 0.22 µM) and the MIC90 (Streptococcus mitis) was 0.25 µg/mL (≈ 0.457 µM). For the same molecule, the MIC50 (Acinetobacter baumannii) was greater than 16 µg/mL, the MIC90 (Acinetobacter baumannii) was greater than 128 µg/mL and the MIC50 (Enterobacter cloacae) was 0.25 µg/mL (≈ 0.457 µM). It also gave an MIC90 (Enterobacter cloacae) of 64 µg/mL (≈ 117 µM), an MIC50 (Pseudomonas aeruginosa) of 2 µg/mL (≈ 3.66 µM) and an MIC90 (Pseudomonas aeruginosa) greater than 128 µg/mL. For the same molecule, the MIC50 (Streptococcus pyogenes) was 0.12 µg/mL (≈ 0.22 µM), the MIC90 (Streptococcus pyogenes) was 0.12 µg/mL (≈ 0.22 µM) and the MIC50 (Bacillus) was 1 µg/mL (≈ 1.83 µM). For the same molecule, the MIC90 (Bacillus) was 64 µg/mL (≈ 117 µM), the MIC50 (Escherichia coli) was 0.12 µg/mL (≈ 0.22 µM) and the MIC90 (Escherichia coli) was 0.25 µg/mL (≈ 0.457 µM). The MIC50 (Gemella) was 1 µg/mL (≈ 1.83 µM), the MIC90 (Gemella) was 64 µg/mL (≈ 117 µM) and the MIC50 (Micrococcus) was 1 µg/mL (≈ 1.83 µM). For the same molecule, the MIC90 (Micrococcus) was 64 µg/mL (≈ 117 µM), the MIC50 (Salmonella) was 0.12 µg/mL (≈ 0.22 µM) and the MIC90 (Salmonella) was 16 µg/mL (≈ 29.3 µM). For the same molecule, the MIC50 (Klebsiella aerogenes) was 0.12 µg/mL (≈ 0.22 µM), the MIC90 (Klebsiella aerogenes) was 16 µg/mL (≈ 29.3 µM) and the MIC50 (Streptococcus agalactiae) was 0.5 µg/mL (≈ 0.915 µM). For the same molecule, the MIC90 (Streptococcus agalactiae) was 1 µg/mL (≈ 1.83 µM), the MIC50 (Gemella morbillorum) was 1 µg/mL (≈ 1.83 µM) and the MIC90 (Gemella morbillorum) was 64 µg/mL (≈ 117 µM).
